Results as given in patent publication US20200345725A1, “Methods and Compositions for Treating Cancer” (Omeros Corporation, priority 2019, published 2020).
Where “and” joins values, the source holds several entries; their conditions need not be identical. Equal entries are not always repeated. Entries after “also recorded” stand apart in the source; their conditions may differ.

Key:
Assay type in all cases: cell-based
[1] = target: T1, ADBR2 (Homo sapiens, UniProt P07550); assay: CRE-Luc reporter assay with control receptor ADBR2
T1 construct: host or cells: HEK293 or CHO cell lines (ATCC)
Protocol: The DNA/lipofectamine 2000 mix (3000 μL) was incubated at room temperature for 30 minutes and then added into a 10 cm culture dish (Corning, NY) containing 70-90% confluent cultured cells, (HEK293 or CHO cell lines (ATCC, VA)), in 15 mL of media. […] The cells were further incubated at 37° C. for various times. The media were removed and the cells lysed.
Compounds were tested in the reporter system with increasing concentrations of GPR174-interacting compounds.
The DNA/lipofectamine 2000 mix (3000 μL) was incubated at room temperature for 30 minutes and then added into a 10 cm culture dish (Corning, NY) containing 70-90% confluent cultured cells, typically HEK293 or CHO cell lines (ATCC, VA), in 15 mL of media. […] Media (26 mL) were added to the detached cells and 120 μL of transfected cells were transferred to each well on a 96-well plate. Increasing concentration of each compound in DMSO (1.2 μl) was added to the cells after plating into the 96-well plate. The cells were further incubated at 37° C. for various times. The media were removed, and the cells lysed.
ADBR2 is a GPCR, like GPR174, that activates the Gs signaling pathway.

[2] = target: T2, GPR174 (Homo sapiens, UniProt Q9BXC1); assay: CRE-Luc reporter Gs signaling assay with GPR174; parameters: host or cells: HEK293 or CHO cell lines (ATCC); conditions: for Gs pathway in the presence of GPR174 (CRE-Luc reporter): increasing concentrations of compound; for Fold decrease in Gs signaling activity / EC50 / Human GPR174 CRE Activity: nature of the compound (IA, antagonist, NM): pCRE-Luc reporter; for EC50: multiple values = separate experiments
Target sequence in this assay (Q9BXC1 whole entry): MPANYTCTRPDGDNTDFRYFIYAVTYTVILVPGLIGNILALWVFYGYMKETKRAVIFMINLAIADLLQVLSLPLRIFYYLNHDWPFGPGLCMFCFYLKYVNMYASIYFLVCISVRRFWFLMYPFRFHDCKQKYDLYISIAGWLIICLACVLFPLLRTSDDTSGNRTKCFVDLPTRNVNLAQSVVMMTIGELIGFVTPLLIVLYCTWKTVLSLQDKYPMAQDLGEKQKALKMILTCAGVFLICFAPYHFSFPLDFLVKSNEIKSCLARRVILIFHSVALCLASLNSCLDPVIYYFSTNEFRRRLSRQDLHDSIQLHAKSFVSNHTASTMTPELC

[3] = target: T2, GPR174; assay: Cellular redistribution assay (CRA) for GPR174; conditions: multiple values = separate experiments
From the text: One method for identifying compounds capable of modulating a receptor is using a cellular redistribution assay (“CRA”). Exemplary CRA methods are found in U.S. Pat. No. 7,309,576 issued to O'Dowd et al. and in O'Dowd et al., J. Biomol. Screen. 12:175-85,2007. […] Incorporation of the NLS alters the cellular localization of the GPCR, such that the majority of the NLS-modified receptor is present in the cell interior. An NLS-modified GPCR, when interacting with a functionally active compound, is mostly localized on the cell surface. Thus, it becomes possible to identify receptor modulators without knowledge of the endogenous ligand or a surrogate ligand.
The inventors have identified a number of compounds that inhibit GPR174 using a CRA assay similar to that described in U.S. Pat. No. 7,309,576 and in O'Dowd et al., J. Biomol. Screen. 12:175-85, 2007. These compounds are described in detail below.
The inventors used a CRA similar to that described in U.S. Pat. No. 7,309,576 and O'Dowd et al., J. Biomol. Screen. 12:175-85, 2007 to identify compounds that are capable of interacting with GPR174 using a library of approximately 370,000 chemical entities. Briefly described, the CRA assay described in U.S. Pat. No. 7,309,576 involves artificially inserting a NLS into the dopamine D1 receptor (DRD1), which allows the receptor to traffic from the cell membrane to the cell interior, and that the binding of antagonists to the receptor retained the receptor at the cell surface, while removal of the ligand allowed the receptor to continue to internalize from the cell surface. Both antagonists and agonists that selectively bound the receptor retained the receptor on the plasma membrane. GPR174 constructs were generated for use in a CRA-based compound screening assay. From this screen, the inventors initially identified compounds of formula I-VI, as described herein and included in Table 1.
Target sequence in this assay (Q9BXC1 1-292 limits assumed): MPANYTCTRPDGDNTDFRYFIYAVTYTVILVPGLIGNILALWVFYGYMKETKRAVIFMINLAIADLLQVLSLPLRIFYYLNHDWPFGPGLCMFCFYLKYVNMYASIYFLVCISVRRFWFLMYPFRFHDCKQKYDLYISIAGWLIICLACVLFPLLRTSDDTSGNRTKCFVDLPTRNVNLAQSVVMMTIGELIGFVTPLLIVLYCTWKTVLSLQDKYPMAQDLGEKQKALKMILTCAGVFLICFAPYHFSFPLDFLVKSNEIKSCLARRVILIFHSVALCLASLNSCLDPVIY

T1 sequence (P07550 whole entry): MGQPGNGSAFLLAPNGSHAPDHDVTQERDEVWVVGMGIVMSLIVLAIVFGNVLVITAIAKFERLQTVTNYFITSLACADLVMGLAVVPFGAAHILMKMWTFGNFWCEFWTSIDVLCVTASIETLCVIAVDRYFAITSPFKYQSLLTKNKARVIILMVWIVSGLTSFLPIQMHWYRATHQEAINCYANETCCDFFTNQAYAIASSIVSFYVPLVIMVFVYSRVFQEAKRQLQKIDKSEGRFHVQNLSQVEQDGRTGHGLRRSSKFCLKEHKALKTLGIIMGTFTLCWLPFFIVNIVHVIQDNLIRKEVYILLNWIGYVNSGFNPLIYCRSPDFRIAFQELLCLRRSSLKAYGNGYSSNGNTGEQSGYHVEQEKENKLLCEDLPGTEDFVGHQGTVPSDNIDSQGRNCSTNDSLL

| Gs pathway in the presence of ADBR2 (CRE-Luc reporter) [1] | Gs pathway in the presence of GPR174 (CRE-Luc reporter) [2] | Fold decrease in Gs signaling activity [2] | EC50 [2] | EC50 [3] | SMILES | Human GPR174 CRE Activity: nature of the compound (IA, antagonist, NM) [2] |
| --- | --- | --- | --- | --- | --- | --- |
| did not inhibit | inhibited | 8.3 fold | 2600 nM | – | O=C1CCCC2=C1C(c1ccc3c(c1)OCCO3)C1=C(N2)c2ccccc2C1=O (stereo not shown) [compound 36] | – |
| – | – | 6.2 fold | 800 nM and 500 nM | – | CCc1ccc(C2C3=C(CCCC3=O)NC3=C2C(=O)c2ccccc23)cc1 (stereo not shown) [compound 27] | – |
| – | – | 7.8 fold | 3000 nM | – | O=C1CCCC2=C1C(c1ccc(Cl)cc1)C1=C(N2)c2ccccc2C1=O (stereo not shown) [compound 39] | – |

Further lines, the compound ahead of its results:

| SMILES | Gs pathway in the presence of ADBR2 (CRE-Luc reporter) [1] | Gs pathway in the presence of GPR174 (CRE-Luc reporter) [2] | Fold decrease in Gs signaling activity [2] | EC50 [2] | EC50 [3] | Human GPR174 CRE Activity: nature of the compound (IA, antagonist, NM) [2] |
| --- | --- | --- | --- | --- | --- | --- |
| O=C(N/N=C/c1cc(Cl)ccc1O)c1ccncc1 [compound 57] | – | – | – | – | – | GPR174 antagonists or allosteric modulators; also recorded: Antagonist or allosteric modulator |
| CC1CCCCN1c1cc(N2CCN(C(=O)C(C)(C)C)CC2)c([N+](=O)[O-])cc1F (stereo not shown) [compound 17] | – | – | 2.0 fold | 3000 nM | – | – |
| CCOC(=O)N1CCN(c2cc(N3CCCCC3)c(F)cc2[N+](=O)[O-])CC1 [compound 7] | did not inhibit | inhibited | 2.4 fold | 300 nM and 500 nM | > 700 nM | – |
| CCCC(=O)N1CCN(c2cc(N3CCCCC3)c(F)cc2[N+](=O)[O-])CC1 [compound 5] | – | – | 2.4 fold | 900 nM | > 1200 nM | – |
| C=C(C)COc1ccc(NC(=O)Nc2ccccc2)cc1 [compound 56] | – | – | 3 fold | 500 nM | – | inverse agonist |
| CC(=O)N1CCN(c2cc(N3CCC(C)CC3)c(F)cc2[N+](=O)[O-])CC1 [compound 13] | – | – | 2.2 fold | 800 nM and 1200 nM | > 2000 nM | – |
